Measurements published in PubChem BioAssay (NCI).
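Test compounds were applied to cells in 96-well plates for 48 hours at 5 doses. Definition used: TGI = concentration required for complete inhibition of growth.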

Tests used:
Assay in all cases: NCI-60 cell line screen, 48 h
UO-31 renal = tested on: UO-31 renal
PC-3 prostate = tested on: PC-3 prostate
COLO 205 colon = tested on: COLO 205 colon
HCC-2998 colon = tested on: HCC-2998 colon
EKVX NSCLC = tested on: EKVX NSCLC
SR leukemia = tested on: SR leukemia
MCF7 breast = tested on: MCF7 breast
LOX IMVI melanoma = tested on: LOX IMVI melanoma
HCT-15 colon = tested on: HCT-15 colon
SK-MEL-5 melanoma = tested on: SK-MEL-5 melanoma

Row | SMILES | TGI (UO-31 renal) | TGI (PC-3 prostate) | TGI (COLO 205 colon) | TGI (HCC-2998 colon) | TGI (EKVX NSCLC) | TGI (SR leukemia) | TGI (MCF7 breast) | TGI (LOX IMVI melanoma) | TGI (HCT-15 colon) | TGI (SK-MEL-5 melanoma)
1 | CN(C)c1cccc2c1C(=O)C=CC21c2ccc(N(C)C)c3c(N(C)C)ccc(c23)C(c2ccccc2)C1c1ccccc1 (configuration not stated) | 12.2 µM | 30.2 µM | 25.7 µM | 45.6 µM | 54.8 µM | 55.1 µM | 36.9 µM | 33.7 µM | 66.8 µM | 27.5 µM
2 | CON(C)C(=O)C1CCCO1 (configuration not stated) | > 100 µM | > 100 µM | > 100 µM |  | > 100 µM | > 100 µM | > 100 µM | > 100 µM | > 100 µM | > 100 µM
3 | Cc1ccc2oc(=O)c(-c3ccccc3)nc2c1 | 95.1 µM |  | 71.1 µM | 41.9 µM | > 100 µM | > 100 µM |  | 62.9 µM | 96.9 µM | > 100 µM
4 | O=[N+]([O-])c1cccc2c(N=Nc3ccc4ccccc4c3O)c(O)cc(S(=O)(=O)O)c12 | 56.1 µM | > 100 µM |  |  | > 100 µM | > 100 µM |  | > 100 µM | > 100 µM | > 100 µM
5 | O=[N+]([O-])c1ccc2c(c1)c(N=NC(=S)Nc1ccc(Cl)cc1)c(O)n2CN1CCOCC1 | 15.7 µM | 21.9 µM | 27.8 µM |  |  | 8.44 µM | 18.8 µM | 23.8 µM | 11.4 µM | 17.7 µM
6 | Cc1cccc(/C(Br)=C2/OC(=O)c3ccccc32)c1 |  | > 100 µM | > 100 µM | > 100 µM | > 100 µM | > 100 µM | > 100 µM |  | > 100 µM | > 100 µM
7 | O=C1C(C(O)(C(F)(F)F)C(F)(F)F)CCC1C(O)(C(F)(F)F)C(F)(F)F (configuration not stated) | 34.3 µM | 98.3 µM | 1.86 µM |  | > 100 µM | 43.8 µM | 2.26 µM | 10.6 µM | > 100 µM | 16.2 µM
8 | C/C(=N\Nc1nc2ccccc2s1)c1ccc2ccccc2n1 | > 100 µM | > 100 µM | > 100 µM |  | > 100 µM | 5.88 µM | > 100 µM | > 100 µM | > 100 µM | > 100 µM
9 | CN1CCN(C2=C(Cl)C3(OCCS3)C(F)(F)C2(F)F)CC1 (configuration not stated) | > 100 µM |  | > 100 µM |  | > 100 µM | > 100 µM | > 100 µM | > 100 µM | > 100 µM | 61.7 µM
10 | CCOC(=O)C1CCC(=O)N1C(=O)c1ccccc1Cl (configuration not stated) | > 100 µM | > 100 µM |  | > 100 µM | > 100 µM | > 100 µM | > 100 µM | > 100 µM | > 100 µM | > 100 µM
11 | COC(=O)C1(O)C(c2ccccc2)=NC2(C)CCCC21 (configuration not stated) | > 100 µM | > 100 µM | > 100 µM | > 100 µM |  | > 100 µM |  | > 100 µM | > 100 µM | > 100 µM
12 | COC(=O)N1N=C(c2ccccc2)C1c1ccccc1 (configuration not stated) | 52.9 µM | > 100 µM | > 100 µM | > 100 µM | > 100 µM | > 100 µM | > 100 µM | 82.8 µM | > 100 µM | 
